Laboratory results as given in patent publication US20090156471A1, “Use of anti-amyloid agents for treating and typing pathogen infections” (RAMOT AT TEL AVIV UNIVERSITY LTD., priority 2005, published 2009).
Entries after “also recorded” stand apart in the source; their conditions may differ.

Columns and labels:
[1] = TEM analysis of peptide self-assembly into fibrillar structures; assay type: physicochemical; conditions: for self-assembly / fibril formation observed by TEM: peptide in water 10 to 50 mg/ml, room temperature, 3-6 days (micrographs: 50 mg/ml, 1 week)
Experimental: TEM analysis—In all examined cases, peptides were dissolved in water to a concentration of 10 to 50 mg/ml and incubated at room-temperature (RT). Fresh stocks were prepared for each and every experiment. […] Following 1 minute, excess fluid was removed, and the grid was then negatively stained with 10 μl of 2% uranyl-acetate in water. Following 2 minutes, excess fluid was removed from the grid. Samples were viewed in JEOL 1200 EX transmission electron microscope. In the experiments shown, 50 mg/ml peptides were used and micrographs were taken following 1 week. Bar represents 100 nm.

[2] = system: curli-expressing E. coli XL1-Blue(pMRInv) binding to bovine fibronectin; assay: Fibronectin binding (adhesion of bacteria to fibronectin coated wells); assay type: cell-based, Escherichia coli; conditions: 0.3 mM peptide, A405, FIG. 3b
Experimental: The adhesion of bacteria to fibronectin coated wells was determined by measuring absorbance at 405 nm. For (A) and (B), each column is the average of three experiments.
Fibronectin binding—Binding was quantified using the protocol described by Gophna et al (32). Briefly, wells of microtiter plates were coated with 100 μl of 5 μg/ml solution of bovine fibronectin (Sigma). The two strains of bacteria were grown to mid-exponential phase (A600, 0.5-0.6) with the various peptides in LB, harvested and suspended in saline. Wells were blocked with 200 μl milk (3%) for 2 hours at RT. Two hundreds micro-liter saline containing 5×10^8 cells/ml bacteria (A600, 0.9) were added to the wells with 0.3 mM of the suitable peptide and were incubated at RT for 3 h. Wells were washed twice with 200 μl PBS-T (0.05% Tween) and once with 200 μl PBS. The optical density of adherent bacteria was determined by the use of a microplate reader (ELISA) (A405), subtracting the optical density of an empty coated well.

[3] = system: curli-expressing E. coli K-12 XL1-Blue(pMRInv); assay: Quantitative Congo red (CR) binding of curli expressing bacteria; conditions: 0.3 mM peptide, FIG. 3a
Experimental: Binding units represent the decrease in absorbance (A487) of the CR solution after incubation with bacteria.
Congo red binding—Bacterial inoculums were grown in 6 ml LB medium for 5-7 hours at 37° C. in the presence or absence of 0.3 mM peptide inhibitor, until the cultures reached A600 of approximately 1.2. Each culture was then pelleted (1 min/13200×g) and resuspended in 6 ml saline (0.8% NaCl). Three double dilutions were performed for each culture and bacterial concentrations were determined at A600. Each dilution was divided into 3 microtubes (1 ml for each) and pelleted by centrifugation for 2 min/13200×g. A 0.004% solution of CR (in saline) was prepared and optical density at 487 nm was measured against a saline background. One thousand, 500 and 200 μl of CR solution were then added to each dilution triplets, the bacteria were well resuspended in the dye and left for 10 min incubation at RT. Next, a second centrifugation (2 min/13200×g) was performed and the supernatants containing the remaining dye were recovered. The optical density at 487 nm of each supernatant was determined and compared to the initial absorbance.
Inhibition was examined by directly applying the putative peptide inhibitor at time zero to a growing culture in liquid medium at 37° C. Cells analyzed for CR binding when reached optical density (A600) of approximately 1.2 absorbance units (AU).

[4] = system: E. coli XL1-Blue(pMRInv) internalization into HEK293 cells; assay: Internalization assay (antibiotic protection assay) in HEK293 cells; conditions: 0.4 mM peptide, HEK293, 3 h at 37° C., gentamicin protection
Experimental: Internalization assay—Epithelial cells were grown overnight in 24-well plates to 80% confluence (˜10^5 cells per well). Bacteria were inoculated in LB broth and grown at 37° C. for 16 h, diluted 100-fold, and grown to mid-exponential phase (A600, 0.4) in the presence or absence of 0.4 mM peptide inhibitor. Bacteria were then diluted to A600, 0.1 in LB and 20 μl were added to each well with epithelial monolayer for 3 h incubation at 37° C. […] Cells were washed once with PBS, pH 7.3, and PBS containing 100 μg/ml gentamicin was added. After 1.5 h incubation, the cells were washed twice in PBS, and lysed by 5 min incubation with ice-cold 0.5% triton X-100. Appropriate bacterial dilutions were plated to determine the number of viable internalized bacteria. E. coli XL1-Blue was maintained on Luria-Bertani (LB) agar and E. coli XL1-Blue(pMRInv) was maintained on LB agar containing 30 μg/ml kanamycin. […]
For that purpose, an antibiotic protection assay was effected using HEK293 cell-line. […] Following exposure to the antibiotic gentamicin, eukaryotic cells were analyzed for bacteria internalization rate by the determination of the colony forming units (cfu) of the surviving bacteria (FIG. 4a).

[5] = Circular dichroism (CD) spectra and copper binding
Experimental: FIGS. 2a-b are graphs showing copper binding to QHGGGN (SEQ ID NO: 5) peptide repeat. […] The titration of metal ions to the oligopeptide was performed using small aliquots from stock aqueous solutions of 25 mM CuCl2.2H2O. CD spectrum (250-800 nm) of QHGGGN (0.5 mM, pH 7.5) was measured with the addition of Cu^2+ in increments of 0.0125 mM (as a minimum) of CuCl2 (0.5 μl) from 0 up to 0.65 mM. Typically, 50 mM HEPES pH 7.5 buffer was used for CD studies. Spectra were obtained using an AVIV spectrapolarimeter and a 5 mm (FIG. 2a) and 10 mm (FIG. 2b) path length cuvettes.
Circular dichroism (CD) spectra and Copper binding—Circular Dichroism (CD) spectra, 250-800 nm, of the curli QHGGGN hexapeptide repeat in the absence and presence were preformed. […] The titration of metal ions to the oligopeptide was performed using small aliquots from stock aqueous solutions of 25 mM CuCl2-2H2O. CD spectrum (250-800 nm) of QHGGGN (0.5 mM, pH 7.5) was measured with the addition of Cu^2+ in increments of 0.0125 mM (as a minimum) of CuCl2 (0.5 μl) from 0 up to 0.65 mM. 50 mM HEPES pH 7.5 buffer was used for CD studies.

[6] = target: the molecule itself; assay: TEM of peptide self-assembly

GQNHGG
self-assembly / fibril formation observed by TEM [1]: fibril-like structured

HGQGNG
aggregation potential (amount of aggregates) of scrambled QHGGGN sequences ([1]; TEM, FIG. 1c): highly aggregative and much more abundant | self-assembly / fibril formation observed by TEM [1]: amorphous aggregates

NHQGGG
self-assembly / fibril formation observed by TEM [1]: small amount but highly ordered assemblies

QAGGGN
structures observed by TEM after prolonged incubation ([1]; following 30 days of incubation): only minor amounts of amorphous aggregates | self-assembly / fibril formation observed by TEM [1]: ability was lost; also recorded: no ordered structures could be detected | bacterial adhesion to fibronectin coated wells [2]: no significant effect | binding of CR in comparison to XL1-Blue(pMRInv) grown in absence of peptide [3]: no significant difference

QFGGGN
fibril formation in a mixture of QFGGGN and QAGGGN peptides ([1]; mixture with QAGGGN, 3-6 days incubation, TEM): not inhibited | self-assembly / fibril formation observed by TEM [1]: assembled into fibrillar structures | self-assembly / fibril formation observed by TEM ([1]; listed as NH2-QFGGGN-COOH): well-ordered fibrillar structures | bacterial adhesion to fibronectin coated wells [2]: no significant effect | amount of internalized bacteria (cfu) in eukaryotic cells [4]: did not interfere with bacterial invasion process | binding of CR in comparison to XL1-Blue(pMRInv) grown in absence of peptide [3]: no significant difference

QHGGGN [curli hexapeptide repeat]
fibrillization in the presence of copper ([1]; electron microscopy, 48 hours with equimolar CuCl2 in 50 mM HEPES, pH 7.5, room-temperature): did not induce fibrillization | self-assembly / fibril formation observed by TEM [1]: assembled into fibrillar structures | self-assembly / fibril formation observed by TEM ([1]; listed as NH2-QHGGGN-COOH): well-ordered fibrillar structures | Cu^2+ binding stoichiometry ([5]; CD signal at 590 nm, peptide 0.5 mM, pH 7.5, 50 mM HEPES, CuCl2 0 up to 0.65 mM): equimolar binding stoichiometry; also recorded: single Cu^2+ ion binding for each peptide molecule | affinity of copper binding for a single repeat ([5]; binding curve sigmoid at concentrations in the hundreds of μM range): not high

B1: QHGGGN peptide (NH2-QHGGGN-COOH) (peptide)
peptide: H-QHGGGN-OH
notes: also called curli QHGGGN hexapeptide repeat
binding result [6]: binds

B2: QFGGGN peptide (NH2-QFGGGN-COOH) (peptide)
peptide: H-QFGGGN-OH
notes: also called curlin repeat; oligopeptide repeat QFGGGN
binding result [6]: binds
